# In PubChem BioAssay (NCI):
#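 Here, GI50 denotes the concentration required for 50% inhibition of growth. TGI: concentration producing complete growth inhibition.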
# What was measured:
# Experiment in all cases: growth of human tumour cells (NCI), 384-well format
# K-562 leukemia = system: K-562 leukemia
# MALME-3M melanoma = system: MALME-3M melanoma
# T-47D breast = system: T-47D breast
# OVCAR-4 ovarian = system: OVCAR-4 ovarian
# KM12 colon = system: KM12 colon
# NCI-H522 lung = system: NCI-H522 lung
# ACHN renal = system: ACHN renal
# NCI-H23 lung = system: NCI-H23 lung
# SNB-19 CNS = system: SNB-19 CNS
# MDA-MB-231 breast = system: MDA-MB-231 breast
# TK-10 renal = system: TK-10 renal
# DU-145 prostate = system: DU-145 prostate
# SK-MEL-2 melanoma = system: SK-MEL-2 melanoma
# COLO 205 colon = system: COLO 205 colon
# NCI-H460 NSCLC = system: NCI-H460 NSCLC
# MCF7 breast = system: MCF7 breast
# HCT-116 colon = system: HCT-116 colon
# SN12C renal = system: SN12C renal
# SK-OV-3 ovarian = system: SK-OV-3 ovarian
# OVCAR-3 ovarian = system: OVCAR-3 ovarian
# UACC-257 melanoma = system: UACC-257 melanoma
# SK-MEL-28 melanoma = system: SK-MEL-28 melanoma
# SF-268 CNS = system: SF-268 CNS
# UO-31 renal = system: UO-31 renal
# NCI-H226 lung = system: NCI-H226 lung
# A498 renal = system: A498 renal
# SK-MEL-5 melanoma = system: SK-MEL-5 melanoma
# HCC-2998 colon = system: HCC-2998 colon
# SF-539 CNS = system: SF-539 CNS
# SF-295 CNS = system: SF-295 CNS
# LOX IMVI melanoma = system: LOX IMVI melanoma
# HL-60(TB) leukemia = system: HL-60(TB) leukemia
# RXF 393 renal = system: RXF 393 renal
# HT29 colon = system: HT29 colon
# A549 NSCLC = system: A549 NSCLC
# HOP-62 NSCLC = system: HOP-62 NSCLC
# HCT-15 colon = system: HCT-15 colon
# SW-620 colon = system: SW-620 colon
# MDA-MB-468 breast = system: MDA-MB-468 breast
# IGROV1 ovarian = system: IGROV1 ovarian
# OVCAR-5 ovarian = system: OVCAR-5 ovarian
# NCI-H322M lung = system: NCI-H322M lung
# CAKI-1 renal = system: CAKI-1 renal
# CCRF-CEM leukemia = system: CCRF-CEM leukemia
# U251 glioblastoma = system: U251 glioblastoma
# MDA-MB-435 melanoma = system: MDA-MB-435 melanoma
# M14 melanoma = system: M14 melanoma
# RPMI-8226 leukemia = system: RPMI-8226 leukemia
# PC-3 prostate = system: PC-3 prostate
# OVCAR-8 ovarian = system: OVCAR-8 ovarian
# SR leukemia = system: SR leukemia
# HOP-92 NSCLC = system: HOP-92 NSCLC
# MOLT-4 leukemia = system: MOLT-4 leukemia
# UACC-62 melanoma = system: UACC-62 melanoma
# 786-0 renal = system: 786-0 renal
# NCI/ADR-RES ovarian = system: NCI/ADR-RES ovarian
# BT-549 breast = system: BT-549 breast
compound,measurement,setting,value
CNC[C@@H](NC(=O)c1ccc(-c2nc([C@H]3CC[C@H](O)[C@@H](F)C3)cnc2N)cc1F)c1cc(F)cc(Br)c1,GI50,K-562 leukemia,16.8 µM
same,TGI,K-562 leukemia,30.5 µM
same,GI50,MALME-3M melanoma,17.1 µM
same,TGI,MALME-3M melanoma,30.9 µM
same,GI50,T-47D breast,22.5 µM
same,TGI,T-47D breast,37.2 µM
same,GI50,OVCAR-4 ovarian,19.9 µM
same,TGI,OVCAR-4 ovarian,36.1 µM
same,GI50,KM12 colon,17.5 µM
same,TGI,KM12 colon,31.5 µM
same,GI50,NCI-H522 lung,18.2 µM
same,TGI,NCI-H522 lung,32.1 µM
same,GI50,ACHN renal,16.9 µM
same,TGI,ACHN renal,30.6 µM
same,GI50,NCI-H23 lung,19.4 µM
same,TGI,NCI-H23 lung,36.9 µM
same,GI50,SNB-19 CNS,19.1 µM
same,TGI,SNB-19 CNS,33.3 µM
same,GI50,MDA-MB-231 breast,20.1 µM
same,TGI,MDA-MB-231 breast,34.4 µM
same,GI50,TK-10 renal,17 µM
same,TGI,TK-10 renal,31.4 µM
same,GI50,DU-145 prostate,18.5 µM
same,TGI,DU-145 prostate,32.8 µM
same,GI50,SK-MEL-2 melanoma,20.5 µM
same,TGI,SK-MEL-2 melanoma,34.8 µM
same,GI50,COLO 205 colon,16.4 µM
same,TGI,COLO 205 colon,30.1 µM
same,GI50,NCI-H460 NSCLC,18.8 µM
same,TGI,NCI-H460 NSCLC,33.2 µM
same,GI50,MCF7 breast,18 µM
same,TGI,MCF7 breast,31.9 µM
same,GI50,HCT-116 colon,16.8 µM
same,TGI,HCT-116 colon,30.6 µM
same,GI50,SN12C renal,18.5 µM
same,TGI,SN12C renal,32.5 µM
same,GI50,SK-OV-3 ovarian,16.9 µM
same,TGI,SK-OV-3 ovarian,30.7 µM
same,GI50,OVCAR-3 ovarian,18 µM
same,TGI,OVCAR-3 ovarian,32 µM
same,GI50,UACC-257 melanoma,14.6 µM
same,TGI,UACC-257 melanoma,27.8 µM
same,GI50,SK-MEL-28 melanoma,18.8 µM
same,TGI,SK-MEL-28 melanoma,33 µM
same,GI50,SF-268 CNS,17.2 µM
same,TGI,SF-268 CNS,31.1 µM
same,GI50,UO-31 renal,1390 nM
same,TGI,UO-31 renal,2870 nM
same,GI50,NCI-H226 lung,18.6 µM
same,TGI,NCI-H226 lung,33 µM
same,GI50,A498 renal,16.6 µM
same,TGI,A498 renal,30.3 µM
same,GI50,SK-MEL-5 melanoma,20.8 µM
same,TGI,SK-MEL-5 melanoma,35.2 µM
same,GI50,HCC-2998 colon,17.2 µM
same,TGI,HCC-2998 colon,31 µM
same,GI50,SF-539 CNS,17.2 µM
same,TGI,SF-539 CNS,31 µM
same,GI50,SF-295 CNS,18.5 µM
same,TGI,SF-295 CNS,32.6 µM
same,GI50,LOX IMVI melanoma,23.1 µM
same,TGI,LOX IMVI melanoma,37.7 µM
same,GI50,HL-60(TB) leukemia,13.9 µM
same,TGI,HL-60(TB) leukemia,26.9 µM
same,GI50,RXF 393 renal,15.3 µM
same,TGI,RXF 393 renal,28.7 µM
same,GI50,HT29 colon,16.1 µM
same,TGI,HT29 colon,29.9 µM
same,GI50,A549 NSCLC,17 µM
same,TGI,A549 NSCLC,31.1 µM
same,GI50,HOP-62 NSCLC,17.8 µM
same,TGI,HOP-62 NSCLC,31.7 µM
same,GI50,HCT-15 colon,19.4 µM
same,TGI,HCT-15 colon,33.7 µM
same,GI50,SW-620 colon,20.6 µM
same,TGI,SW-620 colon,35.1 µM
same,GI50,MDA-MB-468 breast,18.3 µM
same,TGI,MDA-MB-468 breast,32.2 µM
same,GI50,IGROV1 ovarian,17.9 µM
same,TGI,IGROV1 ovarian,34.5 µM
same,GI50,OVCAR-5 ovarian,17.5 µM
same,TGI,OVCAR-5 ovarian,33.5 µM
same,GI50,NCI-H322M lung,18.7 µM
same,TGI,NCI-H322M lung,33.4 µM
same,GI50,CAKI-1 renal,16.9 µM
same,TGI,CAKI-1 renal,30.9 µM
same,GI50,CCRF-CEM leukemia,16.8 µM
same,TGI,CCRF-CEM leukemia,30.5 µM
same,GI50,U251 glioblastoma,17.5 µM
same,TGI,U251 glioblastoma,31.4 µM
same,GI50,MDA-MB-435 melanoma,20.3 µM
same,TGI,MDA-MB-435 melanoma,34.7 µM
same,GI50,M14 melanoma,18.2 µM
same,TGI,M14 melanoma,32.2 µM
same,GI50,RPMI-8226 leukemia,12.4 µM
same,TGI,RPMI-8226 leukemia,24.9 µM
same,GI50,PC-3 prostate,17.6 µM
same,TGI,PC-3 prostate,31.5 µM
same,GI50,OVCAR-8 ovarian,18.9 µM
same,TGI,OVCAR-8 ovarian,33.1 µM
same,GI50,SR leukemia,12.1 µM
same,TGI,SR leukemia,24.5 µM
same,GI50,HOP-92 NSCLC,16.8 µM
same,TGI,HOP-92 NSCLC,30.6 µM
same,GI50,MOLT-4 leukemia,17.7 µM
same,TGI,MOLT-4 leukemia,31.6 µM
same,GI50,UACC-62 melanoma,16.7 µM
same,TGI,UACC-62 melanoma,30.5 µM
same,GI50,786-0 renal,15 µM
same,TGI,786-0 renal,28.3 µM
same,GI50,NCI/ADR-RES ovarian,48.5 µM
same,TGI,NCI/ADR-RES ovarian,> 100 µM
same,GI50,BT-549 breast,13.7 µM
same,TGI,BT-549 breast,26.6 µM
